# Measured values taken from ChEMBL document CHEMBL6083251, “"Pseudosubstrate Envelope"/Free Energy Perturbation-Guided Design and Mechanistic Investigations of Benzothiazole HIV Capsid Modulators with High Ligand Efficiency” (J Med Chem, 2024).
# Active and inactive are the calls of the source. No cut-off for these calls is given here.
# Columns and labels:
# [1] = molecular target: Structural capsid protein (Human immunodeficiency virus 1) (UniProt Q76129); assay: Binding affinity to HIV-1 hexameric capsid protein assessed as reduction in NUP153 binding to capsid protein by competition assay based SPR analysis; conditions: filed as modulator
# Chain of Structural capsid protein (Human immunodeficiency virus 1) (Q76129 as listed by the source): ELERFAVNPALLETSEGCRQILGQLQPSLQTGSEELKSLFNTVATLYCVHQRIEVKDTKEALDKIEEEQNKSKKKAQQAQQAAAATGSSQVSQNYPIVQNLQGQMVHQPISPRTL
# [2] = MRT(0 to infinity) in male Sprague-Dawley at 10 mg/kg, sc measured upto 24 hrs by LC-MS/MS analysis; assay type: ADME, organism-based; conditions: rat, in vivo
# [3] = Subacute toxicity in male Kunming mouse assessed as pathological damage in kidney at 50 mg/kg, po administered every other day for 14 days by H and E staining based analysis; assay type: organism-based; conditions: in vivo, 336 h, time 14 day
# [4] = […] bioavailability in male Sprague-Dawley rat at 10 mg/kg measured upto 24 hrs by LC-MS/MS analysis; assay type: ADME, organism-based; conditions: in vivo
# [5] = Subacute toxicity in male Kunming mouse assessed as change in body weight at 50 mg/kg, po administered every other day for 14 days; assay type: organism-based; conditions: in vivo, 336 h, time 14 day
# [6] = test system: Human immunodeficiency virus 1; assay: Antiviral activity against pseudotyped HIV-1 expressing luciferase-reporter transfected in HEK293T cells assessed as viral inhibition at late stage incubated for 48 hrs by Single-round infection assay; assay type: functional, organism-based
# [7] = Tmax in male Sprague-Dawley rat at 2 mg/kg, iv measured upto 24 hrs by LC-MS/MS analysis; assay type: ADME, organism-based; conditions: in vivo
# [8] = test system: Human immunodeficiency virus 1; assay: Antiviral activity against pseudotyped HIV-1 expressing luciferase-reporter transfected in HEK293T cells assessed as viral inhibition at early stage incubated for 48 hrs by Single-round infection assay; assay type: functional, organism-based
# MT4 = assay: Cytotoxicity against human MT4 cells assessed as reduction in cell viability incubated for 5 days by spectrophotometric based MTT assay; assay type: functional; conditions: MT4, 120 h, time 5 day
# [9] = Subacute toxicity in male Kunming mouse assessed as pathological damage in spleen at 50 mg/kg, po administered every other day for 14 days by H and E staining based analysis; assay type: organism-based; conditions: in vivo, 336 h, time 14 day
# [10] = test system: Human immunodeficiency virus 1; assay: Antiviral activity against pseudotyped HIV-1 expressing luciferase-reporter transfected in HEK293T cells assessed as increase in p24 level in progeny virions by ELISA analysis; assay type: functional, organism-based
# [11] = AUC(0 to infinity) in male Sprague-Dawley rat at 2 mg/kg, iv measured upto 24 hrs by LC-MS/MS analysis; assay type: ADME, organism-based; conditions: in vivo
# [12] = test system: Human immunodeficiency virus 2; assay: Anti-HIV activity against HIV-2 ROD infected in human MT-4 cells assessed as protection against virus-induced cytopathic effect incubated for 5 days by spectrophotometric based MTT assay; assay type: functional, organism-based; conditions: Human immunodeficiency virus 2, ROD, MT4, 120 h
# [13] = AUC(0 to t) in male Sprague-Dawley rat at 10 mg/kg, sc measured upto 24 hrs by LC-MS/MS analysis; assay type: ADME, organism-based; conditions: in vivo
# [14] = molecular target: T1, Structural capsid protein (Human immunodeficiency virus 1, UniProt Q76129); assay: Binding affinity to hexameric HIV-1 NL4.3 capsid protein assessed as dissociation constant by SPR assay
# T1 sequence (Q76129 whole entry): as the sequence (Q76129 as listed by the source) above
# [15] = Acute toxicity in male Kunming mouse assessed as convulsion at 1000 mg/kg, IG administered via gavage; assay type: organism-based; conditions: in vivo, po
# [16] = Subacute toxicity in male Kunming mouse assessed as pathological damage in lungs at 50 mg/kg, po administered every other day for 14 days by H and E staining based analysis; assay type: organism-based; conditions: in vivo, 336 h, time 14 day
# [17] = test system: Human immunodeficiency virus 1; assay: Induction of HIV-1 CA-NC assessed as capsid assembly at 10 uM by FRET analysis; conditions: filed as modulator
# [18] = AUC(0 to infinity) in male Sprague-Dawley rat at 10 mg/kg, sc measured upto 24 hrs by LC-MS/MS analysis; assay type: ADME, organism-based; conditions: in vivo
# [19] = Tmax in male Sprague-Dawley rat at 10 mg/kg, sc measured upto 24 hrs by LC-MS/MS analysis; assay type: ADME, organism-based; conditions: in vivo
# [20] = molecular target: T1, Structural capsid protein; assay: Binding affinity to monomeric HIV-1 NL4.3 capsid protein assessed as dissociation constant by SPR assay
# [21] = Subacute toxicity in male Kunming mouse assessed as hunched posture at 50 mg/kg, po administered every other day for 14 days; assay type: organism-based; conditions: in vivo, 336 h, time 14 day
# [22] = Subacute toxicity in male Kunming mouse assessed as hypoactivity at 50 mg/kg, po administered every other day for 14 days; assay type: organism-based; conditions: in vivo, 336 h, time 14 day
# [23] = Acute toxicity in female Kunming mouse assessed as body weight gain at 1000 mg/kg, IG administered via gavage; assay type: organism-based; conditions: in vivo, po
# [24] = MRT(0 to t) in male Sprague-Dawley rat at 2 mg/kg, iv measured upto 24 hrs by LC-MS/MS analysis; assay type: ADME, organism-based; conditions: in vivo
# [25] = Acute toxicity in female Kunming mouse assessed as anorexia at 1000 mg/kg, IG administered via gavage; assay type: organism-based; conditions: in vivo, po
# [26] = MRT(0 to t) in male Sprague-Dawley rat at 10 mg/kg, sc measured upto 24 hrs by LC-MS/MS analysis; assay type: ADME, organism-based; conditions: in vivo
# [27] = Acute toxicity in male Kunming mouse assessed as death at 1000 mg/kg, IG administered via gavage; assay type: organism-based; conditions: in vivo, po
# [28] = Acute toxicity in female Kunming mouse assessed as death at 1000 mg/kg, IG administered via gavage; assay type: organism-based; conditions: in vivo, po
# [29] = molecular target: Human immunodeficiency virus type 1 reverse transcriptase (Human immunodeficiency virus 1) (UniProt Q72547); assay: Inhibition of HIV1 reverse transcriptase at 6 nM incubated for 1 hr by ELISA analysis
# [30] = Subacute toxicity in male Kunming mouse assessed as animal death at 50 mg/kg, po administered every other day for 14 days; assay type: organism-based; conditions: in vivo, 336 h, time 14 day
# [31] = Cmax in male Sprague-Dawley rat at 10 mg/kg, sc measured upto 24 hrs by LC-MS/MS analysis; assay type: ADME, organism-based; conditions: in vivo
# [32] = Acute toxicity in male Kunming mouse assessed as anorexia at 1000 mg/kg, IG administered via gavage; assay type: organism-based; conditions: in vivo, po
# [33] = test system: Human immunodeficiency virus 1; assay: Anti-HIV activity against wild type HIV-1 IIIB infected in human MT4 cells assessed as protection against virus-induced cytopathic effect incubated for 5 days by spectrophotometric based MTT assay; assay type: functional, organism-based; conditions: Human immunodeficiency virus 1, IIIB, MT4, 120 h
# [34] = Selectivity index, ratio of CC50 for human MT4 cells to EC50 for wild type HIV-1 IIIB infected in human MT4 cells; assay type: toxicity, cell-based; conditions: read-out: Selectivity Index
# [35] = Acute toxicity in female Kunming mouse assessed as convulsion at 1000 mg/kg, IG administered via gavage; assay type: organism-based; conditions: in vivo, po
# [36] = Acute toxicity in male Kunming mouse assessed as sedation at 1000 mg/kg, IG administered via gavage; assay type: organism-based; conditions: in vivo, po
# [37] = Acute toxicity in female Kunming mouse assessed as sedation at 1000 mg/kg, IG administered via gavage; assay type: organism-based; conditions: in vivo, po
# [38] = AUC(0 to t) in male Sprague-Dawley rat at 2 mg/kg, iv measured upto 24 hrs by LC-MS/MS analysis; assay type: ADME, organism-based; conditions: in vivo
# [39] = Metabolic stability in human liver microsomes assessed as half life at 1 uM incubated for 60 mins by LC-MS/MS analysis; assay type: ADME, Microsome
# [40] = Selectivity index, ratio of CC50 for human MT4 cells to EC50 for HIV-2 ROD infected in human MT-4 cells; assay type: toxicity, cell-based; conditions: read-out: Selectivity Index
# [41] = Half life in male Sprague-Dawley rat at 10 mg/kg, sc measured upto 24 hrs by LC-MS/MS analysis; assay type: ADME, organism-based; conditions: in vivo
# [42] = Metabolic stability in human liver microsomes assessed as intrinsic clearance at 1 uM incubated for 60 mins by LC-MS/MS analysis; assay type: ADME, Microsome; conditions: read-out: CLH
smiles,measurement,setting,value
CN(C(=O)[C@H](Cc1cc(F)cc(F)c1)NC(=O)Cc1c[nH]c2ccc(O)cc12)c1ccc2scnc2c1,Activity,[1],Active
same,MRT inf,[2],5.85 h
same,Activity,[3],Non-toxic
same,bioavailability,[4],84.2%
same,Activity,[5],Non-toxic
same,Activity,[6],Active
same,Tmax,[7],4.98 min
same,Activity,[8],Active
same,CC50,MT4,133000 nM
same,Activity,[9],Non-toxic
same,Activity,[10],Active
same,AUC(0-inf),[11],7.77 ng·h/mL
same,EC50,[12],98 nM
same,AUC(0-t) at 24 h,[13],23.3 ng·h/mL
same,Kd,[14],24.6 nM
same,Activity,[15],Non-toxic
same,Activity,[16],Non-toxic
same,Activity,[17],Active
same,AUC(0-inf),[18],33.6 ng·h/mL
same,Tmax,[19],1.33 h
same,Kd,[20],81.1 nM
same,Activity,[21],Non-toxic
same,Activity,[22],Non-toxic
same,Activity,[23],Non-toxic
same,MRT last at 24 h,[24],7.74 min
same,Activity,[25],Non-toxic
same,MRT last at 24 h,[26],3.04 h
same,Activity,[27],Non-toxic
same,Activity,[28],Non-toxic
same,inhibition,[29],inactive
same,Activity,[30],Non-toxic
same,Cmax,[31],4.99 ng/mL
same,Activity,[32],Non-toxic
same,EC50,[33],2.69 nM
same,selectivity ratio,[34],49400
same,Activity,[35],Non-toxic
same,Activity,[36],Non-toxic
same,Activity,[37],Non-toxic
same,AUC(0-t) at 24 h,[38],5.53 ng·h/mL
same,half-life at 1 µM,[39],1.52 h
same,selectivity ratio,[40],1360
same,half-life,[41],3.66 h
same,CLint scaled at 1 µM,[42],15.2 mL/min/kg
